Patent EP0386951A2 (ELI LILLY AND COMPANY, priority 1989, dated 1990)

Experiments:
[1] = Stability of daptomycin reconstituted to 1 mg/ml in normal saline or 5% dextrose, stored at room and refrigerated temperature; type: physicochemical; conditions: solutions of daptomycin and dextrose, 24 h
Description: Next, the solutions were stored at room temperature (approximately 25°C) and refrigerated temperatures and assayed at the 6 h and 24 h timepoints.

[2] = Stability of daptomycin reconstituted in buffered diluents and diluted in 5% dextrose (appearance of degradation products); type: physicochemical; conditions: dissolved in 5% dextrose solution
Source text: The effectiveness of the buffered diluents in suppressing the appearance of degradation products is shown below in Table 2: Table 2: […]

With daptomycin the potency loss ([1]; refrigerated temperature) was “about 5%”, the potency loss ([1]; room temperature) was 17% and the degradation ([2]; 24 h at 25°C) was 15-20%. For the same substance, the degradation ([2]; 7 days at 5°C) was 15-20%.
